Reference: ChEMBL document CHEMBL1201862, “PubChem BioAssay data set” (2004)
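Test compounds were applied to cells in 96-well plates for 48 hours at 5 doses. At the GI50, growth is halved.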 Activity calls are given as the source filed them. Rule as the data show it: active = GI50 up to about 1.1 µM and inactive = higher.

Key:
Experiment in all cases: NCI-60 cell line screen, 48 h
BT-549 = test system: BT-549
Malme-3M = test system: Malme-3M
A498 = test system: A498
NCI-H23 = test system: NCI-H23
OVCAR-8 = test system: OVCAR-8
NCI/ADR-RES = test system: NCI/ADR-RES
HOP-92 = test system: HOP-92
Hs-578T = test system: Hs-578T
UACC-257 = test system: UACC-257
HOP-62 = test system: HOP-62
SK-MEL-5 = test system: SK-MEL-5
SK-MEL-2 = test system: SK-MEL-2
RPMI-8226 = test system: RPMI-8226
MOLT-4 = test system: MOLT-4
MDA-N = test system: MDA-N
SN12C = test system: SN12C
UACC-62 = test system: UACC-62
HL-60 = test system: HL-60
HCT-116 = test system: HCT-116
T47D = test system: T47D

Row | Compound | GI50 (BT-549) | GI50 (Malme-3M) | GI50 (A498) | GI50 (NCI-H23) | GI50 (OVCAR-8) | GI50 (NCI/ADR-RES) | GI50 (HOP-92) | GI50 (Hs-578T) | GI50 (UACC-257) | GI50 (HOP-62) | GI50 (SK-MEL-5) | GI50 (SK-MEL-2) | GI50 (RPMI-8226) | GI50 (MOLT-4) | GI50 (MDA-N) | GI50 (SN12C) | GI50 (UACC-62) | GI50 (HL-60) | GI50 (HCT-116) | GI50 (T47D)
1 | COC(=O)C1=C(OC)[C@H]2C#C/C=C\C#C[C@@H]3Nc4c(cc(O)c5c4C(=O)c4ccccc4C5=O)[C@]24O[C@@]34[C@H]1C | < 0.01 µM (active) | < 0.01 µM (active) | < 0.01 µM (active) | < 0.01 µM (active) | < 0.01 µM (active) | < 0.01 µM (active) | < 0.01 µM (active) | 0.173 µM (active) | < 0.01 µM (active) | < 0.01 µM (active) | < 0.01 µM (active) | 0.0585 µM (active) | < 0.01 µM (active) | < 0.01 µM (active) | < 0.01 µM (active) | < 0.01 µM (active) | < 0.01 µM (active) | < 0.01 µM (active) | 0.0555 µM (active) | 
2 | CCOC(=O)c1c(N)sc2c1C(C)(C(=O)OCC)CC2 (stereo unspecified) | > 100 µM (inactive) | > 100 µM (inactive) | 18.2 µM (inactive) | > 100 µM (inactive) | > 100 µM (inactive) |  | 58.3 µM (inactive) | 78.7 µM (inactive) | > 100 µM (inactive) | > 100 µM (inactive) | > 100 µM (inactive) | > 100 µM (inactive) | 78.5 µM (inactive) | 74.5 µM (inactive) | > 100 µM (inactive) | > 100 µM (inactive) | > 100 µM (inactive) | 96.8 µM (inactive) | 97.5 µM (inactive) | 
3 | CC(=O)N(CCCCNC(=O)C(F)(F)F)CCCNC(=O)C(F)(F)F | > 100 µM (inactive) |  | > 100 µM (inactive) | > 100 µM (inactive) | > 100 µM (inactive) | > 100 µM (inactive) | > 100 µM (inactive) | > 100 µM (inactive) | > 100 µM (inactive) | > 100 µM (inactive) | > 100 µM (inactive) | > 100 µM (inactive) | > 100 µM (inactive) | > 100 µM (inactive) |  | > 100 µM (inactive) | > 100 µM (inactive) | > 100 µM (inactive) | > 100 µM (inactive) | > 100 µM (inactive)
4 | NN/C(=N\S(=O)(=O)c1cc(Cl)c(Oc2ccc([N+](=O)[O-])cc2Cl)c(Cl)c1)Nc1ccc(Cl)cc1 | 18.4 µM (inactive) | 21.8 µM (inactive) | 22.8 µM (inactive) | 16.5 µM (inactive) | 24.2 µM (inactive) | 23.2 µM (inactive) | 19.9 µM (inactive) |  | 17.6 µM (inactive) | 18.4 µM (inactive) | 16 µM (inactive) | 18 µM (inactive) | 31.8 µM (inactive) | 19.1 µM (inactive) | 17.8 µM (inactive) | 17.4 µM (inactive) | 15.5 µM (inactive) |  | 15.7 µM (inactive) | 19.8 µM (inactive)
5 | CC(=O)O[C@@H]1CC[C@@]2(C)C(CC[C@H]3[C@@H]4CC[C@H]([C@H](C)CCc5nc6cc(C)ccc6[nH]5)[C@@]4(C)CC[C@@H]32)C1 (stereo partly specified) | 29.8 µM (inactive) |  | 92.7 µM (inactive) | 17.3 µM (inactive) | 11 µM (inactive) | 97.3 µM (inactive) | 69.5 µM (inactive) | 13.9 µM (inactive) | 38.7 µM (inactive) | 13.1 µM (inactive) | 25.9 µM (inactive) | 31 µM (inactive) | 8.89 µM (inactive) | 28.1 µM (inactive) |  | 41.5 µM (inactive) | 11.5 µM (inactive) |  | > 100 µM (inactive) | 0.0352 µM (active)
6 | CN1C(=O)c2c(ccc3c2OCO3)C2C(O)Cc3cc4c(cc3C21)OCO4 (stereo unspecified) | 13.8 µM (inactive) |  | 3.18 µM (inactive) | 5.58 µM (inactive) | 5.11 µM (inactive) | 3.03 µM (inactive) | 5.79 µM (inactive) | 5.26 µM (inactive) |  |  | 5.51 µM (inactive) | 2.47 µM (inactive) | 3.83 µM (inactive) | 4.04 µM (inactive) | 1.91 µM (inactive) | 4.15 µM (inactive) | 3.36 µM (inactive) | 2.4 µM (inactive) | 4.34 µM (inactive) | 
7 | c1ccc(CSc2nc(N3CCOCC3)c3cn[nH]c3n2)cc1 | 11.7 µM (inactive) | 14.1 µM (inactive) | 5.71 µM (inactive) | 49.2 µM (inactive) | 18.4 µM (inactive) | 15.2 µM (inactive) | 0.237 µM (active) | 13.2 µM (inactive) | 15 µM (inactive) | 27 µM (inactive) | 15.8 µM (inactive) | 16.6 µM (inactive) | 7.85 µM (inactive) | 22.2 µM (inactive) |  | 13.4 µM (inactive) | 11.4 µM (inactive) | 36.6 µM (inactive) | 30.5 µM (inactive) | 15.6 µM (inactive)
8 | CC1(C)OCC(CO)(Nc2nc(N3CC3)nc(N3CC3)n2)CO1 | 26.1 µM (inactive) | 16.9 µM (inactive) | 10.2 µM (inactive) | 4.12 µM (inactive) | 11.3 µM (inactive) |  | 15.3 µM (inactive) | 19 µM (inactive) | 14.7 µM (inactive) | 5.53 µM (inactive) | 8.18 µM (inactive) | 19 µM (inactive) | 16.1 µM (inactive) | 0.597 µM (active) | 13.3 µM (inactive) | 7.71 µM (inactive) | 3.15 µM (inactive) | 0.69 µM (active) | 1.85 µM (inactive) | 1.49 µM (inactive)
9 | Cc1c2ccccc2c(C2C3C(=O)N(c4ccc(Br)cc4)C(=O)C3ON2C(C(N)=O)c2ccccc2)c2ccccc12 (stereo unspecified) | 7.29 µM (inactive) | 3.78 µM (inactive) | 2.98 µM (inactive) | 5.56 µM (inactive) | 6.78 µM (inactive) | 4.39 µM (inactive) | 9.4 µM (inactive) |  | 7.08 µM (inactive) | 8.99 µM (inactive) | 3.1 µM (inactive) | 5.62 µM (inactive) | 1.89 µM (inactive) | 4.05 µM (inactive) | 4.86 µM (inactive) | 5.3 µM (inactive) | 9.35 µM (inactive) | 3.81 µM (inactive) | 4.37 µM (inactive) | 3.18 µM (inactive)
10 | Cc1cc2c(c(C(=O)NCCC(=O)N[C@@H](C)C(=O)OCc3ccccc3)c1)Oc1c(cc(C)cc1C(=O)NCCC(=O)N[C@@H](C)C(=O)OCc1ccccc1)S2 | > 100 µM (inactive) | > 100 µM (inactive) | > 100 µM (inactive) | > 100 µM (inactive) | > 100 µM (inactive) | > 100 µM (inactive) |  | > 100 µM (inactive) | > 100 µM (inactive) | > 100 µM (inactive) | > 100 µM (inactive) | > 100 µM (inactive) | > 100 µM (inactive) | > 100 µM (inactive) | > 100 µM (inactive) | > 100 µM (inactive) | > 100 µM (inactive) |  | > 100 µM (inactive) | > 100 µM (inactive)
11 | CC(C)OC1=C(CC2(C)OCCO2)C(=O)C12OCCO2 | > 100 µM (inactive) |  | > 100 µM (inactive) | 42 µM (inactive) | > 100 µM (inactive) | > 100 µM (inactive) | > 100 µM (inactive) | > 100 µM (inactive) | > 100 µM (inactive) | > 100 µM (inactive) | > 100 µM (inactive) | > 100 µM (inactive) |  | > 100 µM (inactive) |  | > 100 µM (inactive) | > 100 µM (inactive) | > 100 µM (inactive) | > 100 µM (inactive) | > 100 µM (inactive)
12 | N#Cc1c(Cl)cccc1Oc1ccc(S(=O)(=O)/N=C(\NN)Nc2ccc(Cl)cc2)cc1 | 25.1 µM (inactive) |  | 32.4 µM (inactive) | 24.3 µM (inactive) | 31.2 µM (inactive) | 32.9 µM (inactive) | 21.2 µM (inactive) |  | 29.9 µM (inactive) | 21.1 µM (inactive) | 17.1 µM (inactive) | 21.6 µM (inactive) | 32.5 µM (inactive) | 14.6 µM (inactive) | 25.5 µM (inactive) | 25.2 µM (inactive) | 19.1 µM (inactive) | 21.5 µM (inactive) | 17.7 µM (inactive) | 20.1 µM (inactive)
13 | C=C(C)[C@@H]1C[C@H]2O[C@](O)(C(=C)CC(=O)/C=C(/C)C[C@@H]3OC(=O)[C@]24O[C@@H]34)[C@H]1O | > 100 µM (inactive) | > 100 µM (inactive) | > 100 µM (inactive) | > 100 µM (inactive) | > 100 µM (inactive) | > 100 µM (inactive) |  |  | > 100 µM (inactive) | > 100 µM (inactive) | > 100 µM (inactive) | > 100 µM (inactive) | > 100 µM (inactive) | > 100 µM (inactive) | > 100 µM (inactive) | > 100 µM (inactive) | > 100 µM (inactive) |  | > 100 µM (inactive) | > 100 µM (inactive)
14 | N#CC(C#N)=CNC(=S)Nc1ccc(S(=O)(=O)Nc2nccs2)cc1 | > 100 µM (inactive) |  | > 100 µM (inactive) | > 100 µM (inactive) | > 100 µM (inactive) | > 100 µM (inactive) | > 100 µM (inactive) |  | > 100 µM (inactive) | > 100 µM (inactive) | > 100 µM (inactive) | > 100 µM (inactive) |  | > 100 µM (inactive) | > 100 µM (inactive) | > 100 µM (inactive) | > 100 µM (inactive) | > 100 µM (inactive) | > 100 µM (inactive) | > 100 µM (inactive)
15 | FC1C2=C(SC1(F)F)C1CCC2C1 (stereo unspecified) | > 100 µM (inactive) | > 100 µM (inactive) |  | > 100 µM (inactive) | > 100 µM (inactive) | > 100 µM (inactive) | > 100 µM (inactive) | > 100 µM (inactive) | > 100 µM (inactive) |  | > 100 µM (inactive) | > 100 µM (inactive) | > 100 µM (inactive) | > 100 µM (inactive) |  |  | > 100 µM (inactive) | > 100 µM (inactive) | > 100 µM (inactive) | > 100 µM (inactive)
